Here are results for six molecules from patent US20110230481A2, “DERIVATIVES OF TETRABROMOBENZIMIDAZOLE, A PROCESS FOR THE PREPARATION THEREOF, A PHARMACEUTICAL COMPOSITION COMPRISING THE SAME, A METHOD OF USING THE SAME, A METHOD FOR MODULATING OR REGULATING SERINE/THREONINE KINASES, AND SERINE/THREONINE KINASES MODULATING AGENT” (SELVITA S.A., priority 2009, published 2011).

Data set [1] concerns the target PIM2 (Homo sapiens, UniProt Q9P1W9). Put plainly: Radiometric kinase assay (HotSpot). Conditions: for Selectivity for Pim-2 over CK2α: ratio of IC50 values.
Method: (§2) Kinase assays were performed at Reaction Biology Corporation (www.reactionbiology.com, Malvern Pa.) using the “HotSpot” assay platform. This assay platform is based on a radiometric filtration binding assay and is considered as the “gold standard” to which non-radiometric methods are compared. In this assay format, the kinase reaction is performed in the presence of 32 P-γ-ATP or 33 P-γ-ATP, followed by binding of the final radioisotope labeled peptide product to filters after which unreacted phosphate is washed away and the levels of phosphorylated peptide are measured.
In data set [2] the test system is human myelomonocytic, biphenotypic leukemia MV4-11 cells. Put plainly: Growth inhibition test (MTS). Format: cell-based. To be noted: Homo sapiens, MV4-11; MV-4-11; 72 hours; read-out: Cytotoxicity in MTS assay (ED50). The method, then: (§1) Ten thousand cells of human myelomonocytic, biphenotypic leukemia MV4-11 were inoculated into each well of a 96-well microplate (manufactured by Corning Corp.) using Iscove's MDM medium (culture medium) containing 10% fetal calf serum (FCS). The same day, a dimethyl sulfoxide (DMSO) solution of each test compound prepared in a concentration of 10 mmol/L was further diluted with DMSO to the desired concentrations (0.1, 0.5, 1, 2.5, 5 and 10 micromol/L), and the diluted solution was added to each well. The individual wells were further cultured in 5% carbon dioxide at 37° C. for 72 hours. After completion of the culture, 10 μl MTS (3-(4,5-Dimethyl-2-thiazolyl)-5-(carboxymethoxyphenyl)-2-(4-sulfophenyl)-2H-tetrazolium, inner salt assay (CellTiter96® AQueous One Solution Cell Proliferation Assay, Promega) was added to each well, and culturing was performed in 5% carbon dioxide at 37° C. for 2 hours. Using a microplate spectrophotometer (Synergy 2 multi-mode microplate reader (BioTek)), the absorbance of each well was measured at 490 nm. The value for cells not incorporated with a test compound was designated as 100%. By comparing these values with the absorbance difference obtained at the well in which each test compound was added, the cell viability (% viability) after treatment with the test compound was calculated.
(In general: Tetrazolium assays rely on reduction of a dye to a coloured formazan, in cell work by metabolically active cells.)

Data set [3] addresses PIM3 (Homo sapiens, UniProt Q86V86). As to the kind of experiment: Radiometric kinase assay (HotSpot). To be noted: for Selectivity for Pim-3 over CK2α: ratio of IC50 values.
Method: as §2
Data set [4] has as its system human acute lymphocytic leukemia E6.1 Jurkat cells. As to the kind of experiment: Growth inhibition test (MTS). The class given is cell-based. To be noted: Homo sapiens, 72 hours, read-out: Cytotoxicity in MTS assay (ED50). The method, then:
as §1, with “Twenty” for “Ten”, “acute lumphocytic” for “myelomonocytic, biphenotypic”, “E6.1 Jurkat” for “MV4-11”, “[…]” for “Iscove's MDM”

In data set [5] the target is CK2α (Homo sapiens, UniProt P68400). As to the kind of experiment: Radiometric kinase assay (HotSpot).
Method: as §2
The target of data set [6] is PIM1 (Homo sapiens, UniProt P11309). Put plainly: Radiometric kinase assay (HotSpot). To be noted: for Selectivity for Pim-1 over CK2α: ratio of IC50 values.
Method: as §2
In data set [7] the test system is human acute myeloid leukemia MOLM-13 cells. Put plainly: Growth inhibition test (MTS). Format: cell-based. Conditions: Homo sapiens, MOLM-13; MOLM13; 72 hours; read-out: Cytotoxicity in MTS assay (ED50). The method, then:
as §1, with “acute myeloid” for “human myelomonocytic, biphenotypic”, “MOLM-13” for “MV4-11”, “RPMI 8226” for “Iscove's MDM”

Data set [8] has as its system human prostate carcinoma DU145 cells. Put plainly: Growth inhibition test (MTS). Format: cell-based. Conditions: 72 hours. How it is done:
as §1, with “Two” for “Ten”, “prostate carcinoma DU145” for “myelomonocytic, biphenotypic leukemia MV4-11”, “Corp.), and” for “Corp.)”, “DMEM” for “Iscove's MDM”, “innersalt” for “inner salt”

Data set [9] has as its system human prostate adenocarcinoma PC3 cells. As to the kind of experiment: Growth inhibition test (MTS). Format: cell-based. Conditions: PC-3; 72 hours. The method, then:
as §1, with “Two” for “Ten”, “prostate adenocarcinoma PC3” for “myelomonocytic, biphenotypic leukemia MV4-11”, “Corp.), and” for “Corp.)”, “F12K (Ham's F12:[…] 1:1)” for “Iscove's MDM”

Data set [10] is described as follows: Solubility in pH 7.4. To be noted: phosphate buffer.
Method: Compound stock solutions were prepared in DMSO to final concentrations of 1000 mM. For each compound studied, 12 solutions were prepared to cover concentrations from 0.001 to 1 mM. As a solvent 0.2 mM phosphate buffer (pH 7.4) was used. The final concentration of DMSO in the solutions was 1% (v/v). The solutions were left mixing for 24 hours at 37° C., 350 rpm and following incubation centrifuged for 5 minutes at 14500 rpm. The samples were then analyzed by RP HPLC using a C18 column and 0.2% solution of formic acid in water/acetonitrile mobile phase. […] The solubility was determined as the point as the point at which the concentration curve reaches plateau.

Values after ≈ are worked out from the molar mass of the structure shown.

Sequence of CK2α (P68400 whole entry): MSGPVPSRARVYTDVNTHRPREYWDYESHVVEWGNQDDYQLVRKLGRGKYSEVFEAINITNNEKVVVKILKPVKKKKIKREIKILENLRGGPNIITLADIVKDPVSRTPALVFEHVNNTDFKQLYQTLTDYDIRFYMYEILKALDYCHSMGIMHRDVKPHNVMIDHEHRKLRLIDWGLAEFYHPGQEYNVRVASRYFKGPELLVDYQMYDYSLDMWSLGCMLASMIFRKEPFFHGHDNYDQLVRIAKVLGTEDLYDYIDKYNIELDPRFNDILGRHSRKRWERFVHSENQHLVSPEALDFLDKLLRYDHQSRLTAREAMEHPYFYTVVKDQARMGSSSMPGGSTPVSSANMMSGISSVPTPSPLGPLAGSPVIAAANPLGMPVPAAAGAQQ
Sequence of PIM2 (Q9P1W9 whole entry): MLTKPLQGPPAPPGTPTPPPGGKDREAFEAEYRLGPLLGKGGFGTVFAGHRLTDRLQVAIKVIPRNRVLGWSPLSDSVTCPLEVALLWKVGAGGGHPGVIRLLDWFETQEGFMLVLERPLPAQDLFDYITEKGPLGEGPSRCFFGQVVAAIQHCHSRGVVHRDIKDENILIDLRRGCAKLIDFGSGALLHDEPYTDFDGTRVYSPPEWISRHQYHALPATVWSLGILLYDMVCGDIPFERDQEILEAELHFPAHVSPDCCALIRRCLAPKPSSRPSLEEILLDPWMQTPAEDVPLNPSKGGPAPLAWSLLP
Sequence of PIM1 (P11309 whole entry): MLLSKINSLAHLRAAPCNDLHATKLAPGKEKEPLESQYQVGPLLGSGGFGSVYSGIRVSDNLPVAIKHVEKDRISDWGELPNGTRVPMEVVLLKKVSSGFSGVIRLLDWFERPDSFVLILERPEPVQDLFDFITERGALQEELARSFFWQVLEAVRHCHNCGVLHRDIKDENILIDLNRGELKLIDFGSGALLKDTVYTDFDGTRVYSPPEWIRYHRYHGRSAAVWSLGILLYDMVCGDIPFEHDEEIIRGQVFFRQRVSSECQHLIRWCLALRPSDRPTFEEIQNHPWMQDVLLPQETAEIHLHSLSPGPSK

`Brc1c(Br)c(Br)c2[nH]c(NCCCN3CCCCC3)nc2c1Br` [Compound 59, 4,5,6,7-tetrabromo-N-(3-(piperidin-1-yl)propyl)-1H-benzo[d]imidazol-2-amine]: the IC50 in data set [1] was found to be 1490 nM; in data set [2], 2810 nM; in [3], 189 nM; in data set [4], 4410 nM; in data set [5], 855 nM; in [6] it was 88 nM. Moreover, the IC50 in [7] was 3510 nM. Besides, the “Selectivity for Pim-2 over CK2α” value in data set [1] stood at 0.6. Moreover, the “Selectivity for Pim-3 over CK2α” value in data set [3] is reported as 4.5. For the same molecule, the “Selectivity for Pim-1 over CK2α” value in [6] is recorded as 9.7.
For the molecule `NCCCCNc1nc2c(Br)c(Br)c(Br)c(Br)c2[nH]1` [Compound 61, N-(4-aminobutyl)-4,5,6,7-tetrabromo-1H-benzo[d]imidazol-2-amine], the IC50 in data set [1] is 199 nM; in data set [2] it was 4430 nM; in data set [3] it was 20.2 nM; in data set [4] it was 7920 nM; in [5], 386 nM; in [6], 5.2 nM. For the same molecule, the IC50 in data set [7] amounted to 5950 nM. The “Selectivity for Pim-2 over CK2α” value in [1] was found to be 1.9. In addition, the “Selectivity for Pim-3 over CK2α” value in [3] turned out to be 19.1. For the same molecule, the “Selectivity for Pim-1 over CK2α” value in data set [6] stood at 74.2.
As for `Brc1c(Br)c(Br)c2[nH]c(NCCCn3ccnc3)nc2c1Br` [Compound 65, N-(3-(1H-imidazol-1-yl)propyl)-4,5,6,7-tetrabromo-1H-benzo[d]imidazol-2-amine], the IC50 in data set [1] was 823 nM; in data set [2] it was above 10000 nM; in [3], 15.8 nM; in data set [4], above 10000 nM; in data set [5] it was 448 nM; in data set [6], 87.1 nM. Also, in [7], the IC50 is 6880 nM. The “Selectivity for Pim-2 over CK2α” value in data set [1] is on record as 0.5. Also, the “Selectivity for Pim-3 over CK2α” value in data set [3] stood at 28.3. Further, the “Cytotoxicity in MTS assay (ED50)” value was 7720 nM in data set [8] and above 10000 nM in data set [9]. The “Selectivity for Pim-1 over CK2α” value in [6] came to 5.1.
With `Brc1c(Br)c(Br)c2[nH]c(Nc3ccccc3)nc2c1Br` [Compound 79, 4,5,6,7-tetrabromo-N-phenyl-1H-benzo[d]imidazol-2-amine], the IC50 in [1] was above 20000 nM; in [2] it was 4400 nM; in [3], 2960 nM; in [4] it was 9060 nM; in data set [5], 1960 nM; in data set [6] it was 1510 nM. In addition, the IC50 in [7] was determined as 5960 nM. In data set [3], the “Selectivity for Pim-3 over CK2α” value is 0.7. Besides, the “Selectivity for Pim-1 over CK2α” value in data set [6] came out at 1.3.
In the case of `Nc1ccc(Nc2nc3c(Br)c(Br)c(Br)c(Br)c3[nH]2)cc1` [Compound 86, N1-(4,5,6,7-tetrabromo-1H-benzo[d]imidazol-2-yl)benzene-1,4-diamine], the IC50 in data set [1] was 1550 nM; in [2], 5810 nM; in data set [3], 680 nM; in data set [4] it was 8270 nM; in data set [5], 734 nM; in data set [6], 547 nM. The IC50 in data set [7] was 8810 nM. Also, the “Selectivity for Pim-2 over CK2α” value in [1] turned out to be 0.5. Also, the “Selectivity for Pim-3 over CK2α” value in [3] turned out to be 1.1. In addition, in [6], the “Selectivity for Pim-1 over CK2α” value is recorded as 1.3.
`NCC(O)CNc1nc2c(Br)c(Br)c(Br)c(Br)c2[nH]1` (centres unmarked) [Compound 90, 1-(4,5,6,7-tetrabromo-1H-benzo[d]imidazol-2-ylamino)-3-aminopropan-2-ol]: the solubility (in general, the concentration that dissolves in the medium under given conditions) at 24 h in [10] came to 72 µM (≈ 37.6 µg/mL). The IC50 is 90.3 nM in data set [1]; 2120 nM in data set [2]; 7.6 nM in data set [3]; 5780 nM in data set [4]; 110 nM in data set [5]; 9.1 nM in [6]. Also, the IC50 in [7] was determined as 6910 nM. Moreover, the “Selectivity for Pim-2 over CK2α” value in data set [1] turned out to be 1.2. In data set [3], the “Selectivity for Pim-3 over CK2α” value came to 14.4. Moreover, the “Selectivity for Pim-1 over CK2α” value in [6] is 12.0.
